Measurements: patent publication US10919852B2, “Immunomodulator compounds” (CHEMOCENTRYX, INC., priority 2017, dated 2021)
pIC50: −log10 of the molar value.

Each compound was assayed against human PD-L1 / Human PD-1 (Homo sapiens (Human), UniProt Q9NZQ7) (assay: Enzyme-Linked Immunosorbent Assay (ELISA), PD-1/PD-L1 binding). Settings: plate-coated human PD-L1, biotinylated human PD-1.
Description: Biological Example: Enzyme-Linked Immunosorbent Assay—ELISA
96 Well plates were coated with […] of human PD-L1 (obtained from R&D) in PBS overnight at 4° C. The wells were then blocked with 2% BSA in PBS (W/V) with 0.05% TWEEN-20 for 1 hour at 37° C. The plates were washed 3 times with PBS/0.05% TWEEN-20 and the compounds were serial diluted (1:5) in dilution medium and added to the ELISA plates. Human PD-1 and biotin 0.3 μg/mL (ACRO Biosystems) were added and incubated for 1 hour at 37° C. then washed 3 times with PBS/0.05% TWEEN-20. A second block was performed with 2% BSA in PBS (W/V)/0.05% TWEEN-20 for 10 min at 37° C. and was washed 3 times with PBS/0.05% TWEEN-20. Streptavidin-HRP was added for 1 hour at 37° C. then washed 3 times with PBS/0.05% TWEEN-20. TMB substrate was added and reacted for 20 min at 37° C. A stop solution (2 N aqueous H2SO4) was added. The absorbance was read at 450 nm using a micro-plate spectrophotometer.

Chain of human PD-L1 / Human PD-1 (Q9NZQ7 19-239): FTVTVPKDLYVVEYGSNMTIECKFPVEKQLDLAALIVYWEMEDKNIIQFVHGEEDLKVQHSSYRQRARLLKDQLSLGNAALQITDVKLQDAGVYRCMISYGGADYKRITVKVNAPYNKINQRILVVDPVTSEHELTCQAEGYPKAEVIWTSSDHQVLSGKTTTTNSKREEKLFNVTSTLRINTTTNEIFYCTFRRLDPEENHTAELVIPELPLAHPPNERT

`Cc1c(OCCCN2CCC[C@H](O)C2)cccc1-c1cccc2c1CC[C@@H]2Oc1cc(OCc2cncc(C#N)c2)c(CN[C@H](C(=O)O)[C@@H](C)O)cc1Cl` and `Cc1c(OCCCN2CC[C@@H](O)C2)cccc1-c1cccc2c1CC[C@@H]2Oc1cc(OCc2cncc(C#N)c2)c(CN[C@H](C(=O)O)[C@@H](C)O)cc1Cl` cannot be ordered by pIC50: over 8.30 for the first, over 8.30 for the second.

First: Cc1c(OCCCN2CCC(O)CC2)cccc1-c1cccc2c1CC[C@@H]2Oc1cc(OCc2cc(C#N)cc(C#N)c2)c(CN[C@@](C)(CO)C(=O)O)cc1Cl
Second: Cc1c(OCCCN2CCC(F)CC2)cccc1-c1cccc2c1CC[C@@H]2Oc1cc(OCc2cc(C#N)cc(C#N)c2)c(CNC[C@H]2CCC(=O)N2)cc1Cl
The pIC50 of the first is higher: over 8.30 for the first, 6.30 to 8.30 for the second.

`Cc1c(OCCCN2CCC(F)CC2)cccc1-c1cccc2c1CC[C@@H]2Oc1cc(OCc2cncc(C#N)c2)c(CN[C@H](C(=O)O)[C@@H](C)O)cc1Cl` and `C[C@@H](O)[C@H](NCc1cc(Cl)c(O[C@H]2CCc3c(-c4cccc(OCCCN5CCC(F)CC5)c4Cl)cccc32)cc1OCc1cncc(C#N)c1)C(=O)NS(C)(=O)=O` cannot be ordered by pIC50: over 8.30 for the first, over 8.30 for the second.

`N#Cc1cncc(COc2cc(O[C@H]3CCc4c(-c5cccc(OCCCN6CCC(F)CC6)c5Cl)cccc43)c(Cl)cc2CN2CC[C@@H](O)C2)c1` and `N#Cc1cncc(COc2cc(O[C@H]3CCc4c(-c5cccc(OCCCN6CCC(F)CC6)c5Cl)cccc43)c(Cl)cc2CN2CC[C@@H](F)C2)c1` cannot be ordered by pIC50: over 8.30 for the first, over 8.30 for the second.

`N#Cc1cncc(COc2cc(O[C@H]3CCc4c(-c5cccc(OCCCN6CCC(F)CC6)c5Cl)cccc43)c(Cl)cc2CN[C@H]2CCOC[C@@H]2O)c1` and `N#Cc1cncc(COc2cc(O[C@H]3CCc4c(-c5cccc(OCCCN6CCC(F)CC6)c5Cl)cccc43)c(Cl)cc2CN[C@@H]2CCOC[C@H]2O)c1` cannot be ordered by pIC50: over 8.30 for the first, over 8.30 for the second.

`CC1(O)CN(Cc2cc(Cl)c(O[C@H]3CCc4c(-c5cccc(OCCCN6CCC(F)CC6)c5Cl)cccc43)cc2OCc2cncc(C#N)c2)C1` and `CC1(O)CCN(Cc2cc(Cl)c(O[C@H]3CCc4c(-c5cccc(OCCCN6CCC(F)CC6)c5Cl)cccc43)cc2OCc2cncc(C#N)c2)CC1` cannot be ordered by pIC50: over 8.30 for the first, over 8.30 for the second.

`N#Cc1cncc(COc2cc(O[C@H]3CCc4c(-c5cccc(OCCCN6CC7(CC(O)C7)C6)c5Cl)cccc43)c(Cl)cc2CN[C@@H]2CCCC[C@@H]2O)c1` and `N#Cc1cncc(COc2cc(O[C@H]3CCc4c(-c5cccc(OCCCN6CC7(CC(O)C7)C6)c5Cl)cccc43)c(Cl)cc2CN[C@@H]2CCC[C@@H]2O)c1` cannot be ordered by pIC50: over 8.30 for the first, over 8.30 for the second.

`N#Cc1cncc(COc2cc(O[C@H]3CCc4c(-c5cccc(OCCCN6CC(F)(F)C6)c5Cl)cccc43)c(Cl)cc2CNC[C@@H]2CCC(=O)N2)c1` and `N#Cc1cncc(COc2cc(O[C@H]3CCc4c(-c5cccc(OCCCN6CC(F)(F)C6)c5Cl)cccc43)c(Cl)cc2CNC[C@H]2CCC(=O)N2)c1` fall in the same range of pIC50: 6.30 to 8.30 for the first, 6.30 to 8.30 for the second.

`N#Cc1cncc(COc2cc(O[C@H]3CCc4c(-c5cccc(OCCCN6CCCCC6)c5Cl)cccc43)c(Cl)cc2CNC[C@H]2CCC(=O)N2)c1` and `N#Cc1cncc(COc2cc(O[C@H]3CCc4c(-c5cccc(OCCCN6CCCCC6)c5Cl)cccc43)c(Cl)cc2CNC[C@@H]2CCC(=O)N2)c1` cannot be ordered by pIC50: over 8.30 for the first, over 8.30 for the second.

`N#Cc1cncc(COc2cc(O[C@H]3CCc4c(-c5cccc(OCCCN6CCCCC6)c5Cl)cccc43)c(Cl)cc2CN[C@@H]2CCCC[C@@H]2O)c1` and `CC1(F)CCN(CCCOc2cccc(-c3cccc4c3CC[C@@H]4Oc3cc(OCc4cncc(C#N)c4)c(CN[C@@H]4CCCC[C@@H]4O)cc3Cl)c2Cl)CC1` cannot be ordered by pIC50: over 8.30 for the first, over 8.30 for the second.

`C[C@@H](O)[C@H](NCc1cc(Cl)c(O[C@H]2CCc3c(-c4cccc(OCCCN5CCCCC5)c4Cl)cccc32)cc1OCc1cncc(C#N)c1)C(=O)NS(C)(=O)=O` and `C[C@@H](O)[C@H](NCc1cc(Cl)c(O[C@H]2CCc3c(-c4cccc(OCCCN5CCC(C)(F)CC5)c4Cl)cccc32)cc1OCc1cncc(C#N)c1)C(=O)NS(C)(=O)=O` cannot be ordered by pIC50: over 8.30 for the first, over 8.30 for the second.

`N#Cc1cncc(COc2cc(O[C@H]3CCc4c(-c5cccc(OCCCN6CCC(F)CC6)c5Cl)cccc43)c(Cl)cc2CN[C@@H]2CCC[C@@H]2O)c1` and `N#Cc1cncc(COc2cc(O[C@H]3CCc4c(-c5cccc(OCCCN6CCC(F)CC6)c5Cl)cccc43)c(Cl)cc2CN[C@@H]2CCC[C@H]2O)c1` cannot be ordered by pIC50: over 8.30 for the first, over 8.30 for the second.

`C[C@@](CO)(NCc1cc(Cl)c(O[C@H]2CCc3c(-c4cccc(OCCCN)c4Cl)cccc32)cc1OCc1cncc(C#N)c1)C(=O)O` and `C[C@@](CO)(NCc1cc(Cl)c(O[C@H]2CCc3c(-c4cccc(OCCCN5CCC5)c4Cl)cccc32)cc1OCc1cncc(C#N)c1)C(=O)O` cannot be ordered by pIC50: over 8.30 for the first, over 8.30 for the second.

`CC1(C)CC(O)CCN1CCCOc1cccc(-c2cccc3c2CC[C@@H]3Oc2cc(OCc3cncc(C#N)c3)c(CN[C@@H]3CCCC[C@@H]3O)cc2Cl)c1Cl` (stereo partly shown) and `N#Cc1cncc(COc2cc(O[C@H]3CCc4c(-c5cccc(OCCCN6CC7(CC(O)C7)C6)c5Cl)cccc43)c(Cl)cc2CN[C@@H]2CCC[C@H]2O)c1` cannot be ordered by pIC50: over 8.30 for the first, over 8.30 for the second.

Compared with `CCOc1cc(O[C@H]2CCc3c(-c4cccc(OCCCN5CCC(F)CC5)c4Cl)cccc32)c(Cl)cc1CN[C@@H]1CCOC[C@H]1O`, `N#Cc1cncc(COc2cc(O[C@H]3CCc4c(-c5cccc(OCCCN6CCC(F)CC6)c5Cl)cccc43)c(Cl)cc2CN[C@@H]2CCOC[C@@H]2O)c1` is higher in pIC50: 6.30 to 8.30 for the first, over 8.30 for the second.

First: CCOc1cc(O[C@H]2CCc3c(-c4cccc(OCCCN5CCC(F)CC5)c4Cl)cccc32)c(Cl)cc1CN[C@H](C(=O)NS(C)(=O)=O)[C@@H](C)O
Second: N#Cc1cncc(COc2cc(O[C@H]3CCc4c(-c5cccc(OCCCN6CCC(F)CC6)c5Cl)cccc43)c(Cl)cc2CN[C@H]2CCC[C@H]2O)c1
The pIC50 of the first is lower: 6.30 to 8.30 for the first, over 8.30 for the second. The second is the more potent here.

`CC(=O)OC1CCN(CCCOc2cccc(-c3cccc4c3CC[C@@H]4Oc3cc(OCc4cncc(C#N)c4)c(CN[C@@H]4CCCC[C@@H]4O)cc3Cl)c2Cl)CC1` and `N#Cc1cncc(COc2cc(O[C@H]3CCc4c(-c5cccc(OCCCN6CCC(F)CC6)c5Cl)cccc43)c(Cl)cc2CN[C@H]2CCC[C@@H]2O)c1` cannot be ordered by pIC50: over 8.30 for the first, over 8.30 for the second.

`N#Cc1cncc(COc2cc(O[C@H]3CCc4c(-c5cccc(OCCCN6CCC(F)CC6)c5Cl)cccc43)c(Cl)cc2CNCC2CNC(=O)C2)c1` (stereo partly shown) and `N#Cc1cncc(COc2cc(O[C@H]3CCc4c(-c5cccc(OCCCN6CCC(F)CC6)c5Cl)cccc43)c(Cl)cc2CN[C@H]2CCC(=O)NC2)c1` cannot be ordered by pIC50: over 8.30 for the first, over 8.30 for the second.

`Cc1c(OCCCN2CCC(F)CC2)cccc1-c1cccc2c1CC[C@@H]2Oc1cc(OCc2cc(C#N)cc(C#N)c2)c(CNC[C@@H]2CCC(=O)N2)cc1Cl` and `N#Cc1cc(C#N)cc(COc2cc(O[C@H]3CCc4c(-c5cccc(OCCCN6CCC(F)CC6)c5Cl)cccc43)c(Cl)cc2CNC[C@H]2CCC(=O)N2)c1` cannot be ordered by pIC50: over 8.30 for the first, over 8.30 for the second.

`CC1(F)CCN(Cc2cc(Cl)c(O[C@H]3CCc4c(-c5cccc(OCCCN6CCC(F)CC6)c5Cl)cccc43)cc2OCc2cncc(C#N)c2)CC1` and `N#Cc1cncc(COc2cc(O[C@H]3CCc4c(-c5cccc(OCCCN6CCC(F)CC6)c5Cl)cccc43)c(Cl)cc2CN2CCNC(=O)C2)c1` fall in the same range of pIC50: 6.30 to 8.30 for the first, 6.30 to 8.30 for the second.

First: N#Cc1cncc(-c2cc(O[C@H]3CCc4c(-c5cccc(OCCCN6CCC(F)CC6)c5Cl)cccc43)c(Cl)cc2CNC[C@H]2CCC(=O)N2)c1
Second: N#Cc1cncc(-c2cc(O[C@H]3CCc4c(-c5cccc(OCCCN6CCC(F)CC6)c5Cl)cccc43)c(Cl)cc2CN[C@@H]2CCCC[C@@H]2O)c1
The pIC50 of the first is lower: 4.70 to 6.30 for the first, 6.30 to 8.30 for the second.

Compared with `N#Cc1cncc(COc2cc(O[C@H]3CCc4c(-c5cccc(OCCCN6CCC(F)CC6)c5Cl)cccc43)c(Cl)cc2CN[C@H]2CCOC[C@H]2O)c1`, `N#Cc1cncc(COc2cc(O[C@H]3CCc4c(-c5cccc(OCCCN6CCC(F)CC6)c5Cl)cccc43)c(Cl)cc2CN[C@@H]2CCOC[C@@H]2F)c1` is lower in pIC50: over 8.30 for the first, 6.30 to 8.30 for the second. The first is the more potent here.

`N#Cc1cncc(COc2cc(O[C@H]3CCc4c(-c5cccc(OCCCN6CC7(CC(O)C7)C6)c5Cl)cccc43)c(Cl)cc2CN[C@H]2CCC[C@H]2O)c1` and `N#Cc1cncc(COc2cc(O[C@H]3CCc4c(-c5cccc(OCCCN6CC7(CC(O)C7)C6)c5Cl)cccc43)c(Cl)cc2CN[C@H]2CCC[C@@H]2O)c1` cannot be ordered by pIC50: over 8.30 for the first, over 8.30 for the second.

`N#Cc1cncc(COc2cc(O[C@H]3CCc4c(-c5cccc(OCCCN6CC7(CC(O)C7)C6)c5Cl)cccc43)c(Cl)cc2CN2CCCC3(C2)NC(=O)NC3=O)c1` (stereo partly shown) and `N#Cc1cncc(COc2cc(O[C@H]3CCc4c(-c5cccc(OCCCN6CC7(CC(O)C7)C6)c5Cl)cccc43)c(Cl)cc2CN2CCC3(C2)NC(=O)NC3=O)c1` (stereo partly shown) fall in the same range of pIC50: 6.30 to 8.30 for the first, 6.30 to 8.30 for the second.

`N#Cc1cncc(COc2cc(O[C@H]3CCc4c(-c5cccc(OCCCN6CCC(F)CC6)c5Cl)cccc43)c(Cl)cc2CN[C@@H]2CCC(=O)NC2)c1` and `N#Cc1cncc(COc2cc(O[C@H]3CCc4c(-c5cccc(OCCCN6CC7(CC(F)C7)C6)c5Cl)cccc43)c(Cl)cc2CN[C@@H]2CCC[C@@H]2O)c1` cannot be ordered by pIC50: over 8.30 for the first, over 8.30 for the second.

`N#Cc1cncc(COc2cc(O[C@H]3CCc4c(-c5cccc(OCCC(N)=O)c5Cl)cccc43)c(Cl)cc2CN[C@@H]2CCCC[C@@H]2O)c1` and `N#Cc1cncc(COc2cc(O[C@H]3CCc4c(-c5cccc(OCCC(N)=O)c5Cl)cccc43)c(Cl)cc2CNC[C@H]2CCC(=O)N2)c1` fall in the same range of pIC50: 6.30 to 8.30 for the first, 6.30 to 8.30 for the second.

Compared with `N#Cc1cncc(COc2cc(O[C@H]3CCc4c(-c5cccc(OCCCN6CC7(CC(F)C7)C6)c5Cl)cccc43)c(Cl)cc2CN[C@@H]2CCC[C@H]2O)c1`, `N#Cc1cncc(COc2cc(O[C@H]3CCc4c(-c5cccc(OCCCN6CC7(CC(F)C7)C6)c5Cl)cccc43)c(Cl)cc2CN2CCC3(C2)NC(=O)NC3=O)c1` (stereo partly shown) is lower in pIC50: over 8.30 for the first, 6.30 to 8.30 for the second. The first is the more potent here.

`Cc1c(OCCCN2CCCCC2)cccc1-c1cccc2c1CC[C@@H]2Oc1cc(OCc2cc(C#N)cc(C#N)c2)c(CNC[C@H]2CCC(=O)N2)cc1Cl` gave a pIC50 of over 8.30.
